Experimental findings from PubChem BioAssay AID602378 (Sanford-Burnham Center for Chemical Genomics, 2012) are described below.

The subject of this test is S. cerevisiae tim10-1 mutant yeast, luminescence growth read-out. The test can be described thus: tim10-1 mutant strain growth inhibitors – luminescence, S. cerevisiae, counter-screen for tim23-1 inhibitor project, SAR follow-up (AID 602378). On the technique in general: The purpose of a counterscreen is to sort out artefacts and off-target activity.

Structures are written as SMILES. The source made the active and inactive calls. How the calls were made is not given here.

Consider `Cc1nc2scc(C)n2c(=O)c1S(=O)(=O)Nc1ccc(N2CCOCC2)c(Cl)c1`, for which the IC50 is > 99 µM (inactive).

Regarding `COc1ccc(/C=C/C(=O)Nc2ccc3c(c2)CCC3)cc1OC`, the IC50 was 17.5 µM.

Take `O=C(CSc1cccc[n+]1[O-])Nc1ccccc1Oc1ccccc1`: the 50% inhibitory concentration (IC50) was 0.949 µM.

For the molecule `Cc1ccc2nc(CSc3ccc(S(=O)(=O)N4CCCC4)cn3)cc(=O)n2c1`, the IC50 was > 99 µM (inactive).

On to `Cc1ccc(OCC(=O)O/N=C(\N)Cc2ccc(Cl)cc2)cc1`, for which the IC50 was 2.57 µM.

Regarding `O=C(Nc1ccc(-c2cn3ccccc3n2)cc1)c1cccs1`, the IC50 was > 99 µM (inactive).

Turning to `O=C(CSCc1ccccc1)Nc1cc(S(=O)(=O)N2CCOCC2)ccc1Oc1ccccc1`, the IC50 was > 99 µM (inactive).

On to `CC(C)Cn1cnc2c(c(-c3ccccc3)c(-c3ccccc3)n2Cc2ccco2)c1=N`, for which the concentration for half-maximal inhibition (IC50) is 16.8 µM.

For the molecule `Cc1nc2scc(C)n2c(=O)c1S(=O)(=O)Nc1ccc(N2CCOCC2)cc1`, the IC50 is > 99 µM (inactive).

For the molecule `CCOc1ccc2nc(N3C(=O)CNC3=S)sc2c1`, the IC50 is > 99 µM (inactive).

`O=C(Nc1nc2ccccc2s1)C1CCCN1S(=O)(=O)c1ccc(Cl)cc1` (stereo not given): the IC50 was 13.1 µM.

For the molecule `Cc1ccc(-c2nc3ccc(NC(=O)c4cccs4)cc3[nH]2)o1`, the half-maximal inhibitory concentration (IC50) was 16.4 µM.

On to `CCN(C(=O)c1cccc2ncccc12)c1c(N)n(Cc2ccccc2)c(=O)[nH]c1=O`, for which the IC50 was > 99 µM (inactive).

Take `N/C(=N\OC(=O)c1ccc2ccccc2c1)c1ccc(I)cc1`: the IC50 is > 99 µM (inactive).

In the case of `Cc1noc(C)c1S(=O)(=O)Nc1ccc(-c2cn3c(n2)SCC3)cc1`, the IC50 was > 99 µM (inactive).

For `COc1ccc(Cl)cc1NS(=O)(=O)c1c(C)nc2scc(C)n2c1=O`, the IC50 is > 99 µM (inactive).

Consider `O=c1cc(CSc2ccc(S(=O)(=O)N3CCCCC3)cn2)nc2ccc(Br)cn12`, for which the IC50 was > 99 µM (inactive).

As to `Cc1csc(NC(=O)c2sc3nc4c(cc3c2N)CN(C)CC4)n1`, the IC50 was > 99 µM (inactive).

As for `N/C(=N\OC(=O)c1ccc(Cl)cc1)c1ccc(Cl)cc1`, the IC50 was 1.1 µM.

Consider `CC(=O)c1ccc(NS(=O)(=O)c2c(C)nc3scc(C)n3c2=O)cc1`, for which the IC50 is > 99 µM (inactive).

For `O=C(N/N=C/C(Cl)=C\c1ccccc1)c1cccs1`, the IC50 was 42.7 µM.

As to `Cc1nc2scc(C)n2c(=O)c1S(=O)(=O)Nc1ccc(N2CCN(S(C)(=O)=O)CC2)cc1`, the IC50 is > 99 µM (inactive).

Regarding `N/C(=N\OC(=O)c1ccc(Cl)cc1)c1cccc(CS(=O)(=O)c2ccccn2)c1`, the IC50 was 14 µM.

For `Cc1ccc(/C(N)=N/OC(=O)c2ccccc2)cc1F`, the IC50 is 1.12 µM.

As to `O=C(Nc1ccn[nH]1)c1cccc(OCc2cccnc2)c1`, the IC50 is > 99 µM (inactive).

With `Cc1ccc2nc(N3C(=O)CNC3=S)sc2c1`, the IC50 was 13 µM.

As for `Cc1cc(OCC(=O)O/N=C(\N)Cc2ccc(Cl)cc2)ccc1Br`, the IC50 was 3.28 µM.

In the case of `CCCN(C(=O)c1ccc([N+](=O)[O-])c(C)c1)c1c(N)n(Cc2ccccc2)c(=O)[nH]c1=O`, the IC50 was 1.08 µM.

Take `O=C(Nc1ccc2nc(-c3ccc(Br)o3)[nH]c2c1)c1cccs1`: the IC50 was 24.6 µM.

Take `O=C1OC(c2ccccc2)=N/C1=C\C=C\c1ccco1`: the half-inhibitory concentration (IC50) is 3.62 µM.

As to `Cc1nn(Cc2cccc(C(=O)O/N=C(\N)c3ccc(Cl)cc3)c2)c(C)c1Br`, the half-maximal inhibitory concentration (IC50) is 1.51 µM.

Regarding `CN1CCc2nc3sc(C(=O)C45CC6CC(CC(C6)C4)C5)c(N)c3cc2C1`, the half-maximal inhibitory concentration (IC50) was 69.3 µM.

Take `COc1cc2c(cc1OC)/C(=C/c1ccc(Cl)cc1)C(=O)OC2`: the IC50 was 10.8 µM.

In the case of `N/C(=N\OC(=O)c1ccccc1)c1ccc(F)cc1F`, the IC50 was 6.71 µM.

As for `Cc1nc2scc(C)n2c(=O)c1S(=O)(=O)Nc1ccc(OC(F)(F)F)cc1`, the IC50 is 26.5 µM.

For `N#C/C(=C\c1ccc(Cl)cc1)C(=O)Nc1cccnc1`, the IC50 was 25.6 µM.

In the case of `CC1(C)C=Cc2cc(/C(N)=N/OC(=O)c3ccccc3)ccc2O1`, the IC50 was 0.66 µM.

Consider `CCOc1ccc(NS(=O)(=O)c2c(C)nc3scc(C)n3c2=O)cc1`, for which the IC50 is > 99 µM (inactive).

As for `Cc1nc2scc(C)n2c(=O)c1S(=O)(=O)Nc1ccc(N2CCN(C(=O)C(C)C)CC2)cc1`, the IC50 is > 99 µM (inactive).

Regarding `CCOc1cc2ccccc2cc1C(=O)O/N=C(\N)c1ccc(Cl)cc1`, the IC50 is 1.61 µM.

In the case of `CS(=O)(=O)Nc1ccc(/C(N)=N/OC(=O)c2ccccc2Cl)cc1`, the IC50 was > 99 µM (inactive).

For the molecule `Cc1nc2scc(C)n2c(=O)c1S(=O)(=O)Nc1ccccc1`, the IC50 is 66.9 µM.

Consider `CC(C)(C)c1csc(NC(=O)c2ccc(Cl)s2)n1`, for which the IC50 was 54.7 µM.

For the molecule `O=c1cc(CSc2ccc(S(=O)(=O)N3CCOCC3)cn2)nc2ccc(Br)cn12`, the IC50 was 77.4 µM.

Consider `N/C(Cc1cccc2ccccc12)=N\OC(=O)COc1ccc(Cl)cc1Cl`, for which the IC50 is 27.9 µM.

On to `Cc1ccc(-c2nn(-c3ccccc3)cc2NC(=O)CCl)cc1`, for which the half-maximal inhibitory concentration (IC50) was 1.88 µM.

As for `N#Cc1c(-c2ccccc2)cc(-c2ccc(O)cc2)nc1N`, the IC50 is 10.3 µM.

Regarding `Cc1nc2scc(C)n2c(=O)c1S(=O)(=O)Nc1cccc(O)c1`, the IC50 was > 99 µM (inactive).

Regarding `Oc1ccc(Oc2ccc(Oc3ccc(O)cc3)cc2)cc1`, the IC50 is 25.6 µM.

Turning to `Nc1cccc(Oc2ccc(Oc3cccc(N)c3)cc2)c1`, the IC50 is > 99 µM (inactive).

`N/C(=N\OC(=O)c1cccc2ccccc12)c1ccc(Cl)cc1`: the IC50 is 1.03 µM.

Consider `Cc1c2c(n(Cc3ccco3)c1C)N=CN1CCS(=O)(=O)N=C21`, for which the IC50 was > 99 µM (inactive).

Consider `CCCCOc1ccc(C(=O)O/N=C(\N)c2cccc(Br)c2)cc1`, for which the IC50 was 1.09 µM.

Turning to `C=C1CCc2c([nH]c3ccc(OCC(C)C)cc23)C1=O`, the IC50 was > 99 µM (inactive).

As to `Cc1ccc2nc(CS(=O)(=O)c3ncccc3Cl)cc(=O)n2c1`, the IC50 is > 99 µM (inactive).

For the molecule `Cc1nc2scc(C)n2c(=O)c1S(=O)(=O)Nc1ccc(Oc2ccc(Cl)cc2)cc1`, the IC50 is > 99 µM (inactive).

Take `Cc1ccc(Nc2nc(-c3cccnc3)nc3ccccc23)cc1`: the IC50 was 14.1 µM.

Turning to `CC(=O)c1ccc2[nH]c3c(c2c1)CCCC3=O`, the IC50 is > 99 µM (inactive).

As for `NC(=O)C1CCN(c2nc(-c3cccnc3)nc3ccccc23)CC1`, the IC50 is > 99 µM (inactive).

On to `Cc1nc2scc(C)n2c(=O)c1S(=O)(=O)Nc1cc(C(F)(F)F)ccc1Cl`, for which the IC50 was > 99 µM (inactive).

As usually defined, the IC50 is the concentration that inhibits the measured activity by half.
